Source: ChEMBL document CHEMBL1201862, “PubChem BioAssay data set” (2004)
Active and inactive are the calls of the source.

What was measured:
[1] = molecular target: T1, Sentrin-specific protease 7 (Homo sapiens, UniProt Q9BQF6); assay: SENP7 protease inhibitors, SAR follow-up, biochemical, luminescence (AID 504497); assay type: functional
T1 sequence (Q9BQF6 whole entry): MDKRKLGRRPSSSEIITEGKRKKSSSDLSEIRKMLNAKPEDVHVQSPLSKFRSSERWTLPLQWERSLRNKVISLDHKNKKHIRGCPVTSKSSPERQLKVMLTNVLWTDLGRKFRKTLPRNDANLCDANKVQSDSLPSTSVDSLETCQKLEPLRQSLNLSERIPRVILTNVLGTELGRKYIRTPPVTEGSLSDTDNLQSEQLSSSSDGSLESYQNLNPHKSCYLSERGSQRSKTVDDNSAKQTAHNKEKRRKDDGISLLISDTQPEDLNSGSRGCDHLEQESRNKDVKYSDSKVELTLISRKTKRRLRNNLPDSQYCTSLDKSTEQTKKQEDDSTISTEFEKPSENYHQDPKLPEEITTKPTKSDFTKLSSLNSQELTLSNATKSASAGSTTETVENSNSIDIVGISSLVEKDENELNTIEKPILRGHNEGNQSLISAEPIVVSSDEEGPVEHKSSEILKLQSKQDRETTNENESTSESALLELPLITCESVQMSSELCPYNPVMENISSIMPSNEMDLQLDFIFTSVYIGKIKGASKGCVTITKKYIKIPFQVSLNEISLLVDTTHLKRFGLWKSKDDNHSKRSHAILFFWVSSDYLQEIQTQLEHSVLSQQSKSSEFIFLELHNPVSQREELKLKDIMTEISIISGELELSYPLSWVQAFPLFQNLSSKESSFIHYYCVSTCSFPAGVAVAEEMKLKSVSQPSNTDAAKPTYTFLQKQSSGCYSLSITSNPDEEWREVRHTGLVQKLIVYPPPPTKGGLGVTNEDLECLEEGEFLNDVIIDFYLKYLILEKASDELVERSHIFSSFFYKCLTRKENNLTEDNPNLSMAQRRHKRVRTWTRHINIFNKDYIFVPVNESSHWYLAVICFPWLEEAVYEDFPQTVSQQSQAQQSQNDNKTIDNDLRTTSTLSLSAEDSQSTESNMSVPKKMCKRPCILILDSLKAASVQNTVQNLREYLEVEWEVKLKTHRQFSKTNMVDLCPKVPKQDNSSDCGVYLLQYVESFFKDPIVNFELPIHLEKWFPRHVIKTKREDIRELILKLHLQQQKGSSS

[2] = molecular target: T2, Sentrin-specific protease 8 (Homo sapiens, UniProt Q96LD8); assay: SENP8 protease inhibitors, SAR follow-up, biochemical, luminescence (AID 504501); assay type: functional
T2 sequence (Q96LD8 whole entry): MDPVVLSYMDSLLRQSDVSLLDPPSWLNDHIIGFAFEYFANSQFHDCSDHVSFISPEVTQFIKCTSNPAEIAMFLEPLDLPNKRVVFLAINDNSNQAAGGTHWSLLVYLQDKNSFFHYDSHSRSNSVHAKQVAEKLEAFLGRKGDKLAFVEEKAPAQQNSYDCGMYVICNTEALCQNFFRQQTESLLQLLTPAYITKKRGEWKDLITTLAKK

Caspase-3 = molecular target: T3, Caspase-3 (Homo sapiens, UniProt P42574); assay: SAR Analysis of small molecule inhibitors of Sentrin-specific proteases (SENPs) using a Caspase-3 Selectivity assay. [Related pubchem assays (depositor defined):AID2540, AID2599, AID434973, AID489001]; assay type: functional
T3 sequence (P42574 whole entry): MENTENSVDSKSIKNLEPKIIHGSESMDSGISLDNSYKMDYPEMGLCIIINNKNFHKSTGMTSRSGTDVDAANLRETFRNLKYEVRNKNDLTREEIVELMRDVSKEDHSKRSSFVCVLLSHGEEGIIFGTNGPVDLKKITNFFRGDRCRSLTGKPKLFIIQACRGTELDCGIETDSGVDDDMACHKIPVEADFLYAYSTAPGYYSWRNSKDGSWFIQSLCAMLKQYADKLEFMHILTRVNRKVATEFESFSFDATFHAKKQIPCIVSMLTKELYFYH

Protein skinhead-1 = molecular target: T4, Protein skinhead-1 (Caenorhabditis elegans, UniProt P34707); assay type: functional
T4 sequence (P34707 whole entry): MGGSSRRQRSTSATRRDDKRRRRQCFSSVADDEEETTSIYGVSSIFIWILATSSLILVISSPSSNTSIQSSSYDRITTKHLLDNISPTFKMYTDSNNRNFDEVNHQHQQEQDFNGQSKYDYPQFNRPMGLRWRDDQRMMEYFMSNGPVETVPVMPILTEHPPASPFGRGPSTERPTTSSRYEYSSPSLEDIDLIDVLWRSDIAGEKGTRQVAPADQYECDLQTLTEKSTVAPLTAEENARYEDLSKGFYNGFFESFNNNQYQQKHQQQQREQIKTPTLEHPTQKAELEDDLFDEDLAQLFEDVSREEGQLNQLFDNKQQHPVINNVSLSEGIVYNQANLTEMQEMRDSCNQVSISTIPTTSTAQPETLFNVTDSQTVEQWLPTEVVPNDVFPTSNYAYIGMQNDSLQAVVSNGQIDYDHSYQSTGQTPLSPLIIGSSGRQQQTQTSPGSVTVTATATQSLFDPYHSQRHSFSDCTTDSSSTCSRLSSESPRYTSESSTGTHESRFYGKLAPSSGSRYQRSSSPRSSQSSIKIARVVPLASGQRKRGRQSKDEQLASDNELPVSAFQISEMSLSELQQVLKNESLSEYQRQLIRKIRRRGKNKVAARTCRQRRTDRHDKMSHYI

[3] = molecular target: T5, Sentrin-specific protease 6 (Homo sapiens, UniProt Q9GZR1); assay: SAR Analysis of small molecule inhibitors of Sentrin-specific protease 6 (SENP6) using a Luminescent assay. [Related pubchem assays (depositor defined):AID2582, AID2599]; assay type: functional
T5 sequence (Q9GZR1 whole entry): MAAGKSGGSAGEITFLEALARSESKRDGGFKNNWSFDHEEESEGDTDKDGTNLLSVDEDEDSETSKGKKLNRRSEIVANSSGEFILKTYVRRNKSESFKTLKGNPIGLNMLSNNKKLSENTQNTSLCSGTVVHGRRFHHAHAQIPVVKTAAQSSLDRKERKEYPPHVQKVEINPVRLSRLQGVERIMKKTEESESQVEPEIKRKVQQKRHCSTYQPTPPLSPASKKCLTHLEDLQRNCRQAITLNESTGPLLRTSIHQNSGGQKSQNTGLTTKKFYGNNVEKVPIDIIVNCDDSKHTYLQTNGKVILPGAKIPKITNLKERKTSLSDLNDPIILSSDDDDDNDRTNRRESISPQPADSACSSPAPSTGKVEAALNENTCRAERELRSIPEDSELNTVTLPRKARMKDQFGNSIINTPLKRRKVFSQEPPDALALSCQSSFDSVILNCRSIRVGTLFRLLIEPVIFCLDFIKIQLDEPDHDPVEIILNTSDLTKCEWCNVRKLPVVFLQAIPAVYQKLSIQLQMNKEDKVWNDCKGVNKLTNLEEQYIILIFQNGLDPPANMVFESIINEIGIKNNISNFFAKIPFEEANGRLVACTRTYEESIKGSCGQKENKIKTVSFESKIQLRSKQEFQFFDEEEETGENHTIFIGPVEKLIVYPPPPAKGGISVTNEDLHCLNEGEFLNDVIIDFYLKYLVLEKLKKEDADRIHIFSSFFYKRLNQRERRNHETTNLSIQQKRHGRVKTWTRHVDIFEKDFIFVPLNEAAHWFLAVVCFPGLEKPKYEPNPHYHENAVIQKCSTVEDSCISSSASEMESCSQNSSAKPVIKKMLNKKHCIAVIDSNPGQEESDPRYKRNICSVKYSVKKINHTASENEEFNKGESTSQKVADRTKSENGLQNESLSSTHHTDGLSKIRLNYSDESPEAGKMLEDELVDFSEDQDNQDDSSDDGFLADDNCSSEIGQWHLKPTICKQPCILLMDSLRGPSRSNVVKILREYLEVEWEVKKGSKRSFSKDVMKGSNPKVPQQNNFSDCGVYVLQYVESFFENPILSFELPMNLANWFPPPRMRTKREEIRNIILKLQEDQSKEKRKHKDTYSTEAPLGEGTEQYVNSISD

[4] = HEp-2 cell cytotoxicity, dose response, cytotoxicity control for RSV inhibitor project, HTS (AID 2410); assay type: functional; details: human respiratory syncytial virus
[5] = molecular target: T6, Orexin/Hypocretin receptor type 1 (Homo sapiens, UniProt O43613); assay: (§1) Fluorescence-based cell-based high throughput dose response assay for antagonists of the orexin 1 receptor (OX1R; HCRTR1). [Related pubchem assays (depositor defined):AID434989, AID435008, AID463079, AID485270, AID492963, AID492964, AID492965, AID493232, AID504717, AID504718]; assay type: functional
T6 sequence (O43613 whole entry): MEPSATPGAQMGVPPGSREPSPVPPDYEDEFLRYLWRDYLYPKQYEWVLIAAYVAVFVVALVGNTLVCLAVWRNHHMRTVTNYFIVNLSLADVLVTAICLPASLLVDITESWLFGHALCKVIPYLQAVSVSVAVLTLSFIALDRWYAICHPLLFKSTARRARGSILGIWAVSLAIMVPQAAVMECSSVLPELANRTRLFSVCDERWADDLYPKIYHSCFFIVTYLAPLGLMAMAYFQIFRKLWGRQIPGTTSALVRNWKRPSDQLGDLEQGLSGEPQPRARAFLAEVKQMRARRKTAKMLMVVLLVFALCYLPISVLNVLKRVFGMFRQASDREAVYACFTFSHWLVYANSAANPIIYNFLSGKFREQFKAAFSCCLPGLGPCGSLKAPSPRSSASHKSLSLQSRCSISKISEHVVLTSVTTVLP

[6] = (§2) Counterscreen for antagonists of the orexin 1 receptor (OX1R; HCRTR1): Fluorescence-based cell-based high throughput dose response assay to identify antagonists of the parental CHO cell line. [Related pubchem assays (depositor defined):AID434989, AID435008, AID463079, AID485270, AID492963, AID492964, AID492965, AID493232, AID504699, AID504701]; assay type: functional
[7] = molecular target: T6, Orexin/Hypocretin receptor type 1; assay: as §1, with “Homogeneous Time Resolved Fluorescence (HTRF)-based” for “Fluorescence-based”; assay type: functional
[8] = molecular target: Eukaryotic translation initiation factor 4E (Mus musculus, UniProt P63073); assay: eIF4E–eIF4G protein interaction inhibitors, dose response, biochemical, TR-FRET (AID 855); assay type: functional;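 note: potency for disrupting eIF4E binding to eIF4GI seen as loss of FRET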
Eukaryotic translation initiation factor 4E, sequence (P63073 whole entry): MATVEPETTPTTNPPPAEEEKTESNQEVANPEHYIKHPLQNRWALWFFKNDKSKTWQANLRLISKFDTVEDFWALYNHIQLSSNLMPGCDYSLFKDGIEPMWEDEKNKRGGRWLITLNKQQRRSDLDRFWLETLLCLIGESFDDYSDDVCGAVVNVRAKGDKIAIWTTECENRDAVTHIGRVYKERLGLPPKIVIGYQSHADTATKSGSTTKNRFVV

Orexin receptor type 2 [9] = molecular target: T7, Orexin receptor type 2 (Homo sapiens, UniProt O43614); assay: Counterscreen assay for antagonists of the orexin 1 receptor (OX1R; HCRTR1): Fluorescence-based cell-based dose response assay for antagonists of the orexin 2 receptor (OX2R; HCRTR2), run by assay provider.; assay type: functional
T7 sequence (O43614 whole entry): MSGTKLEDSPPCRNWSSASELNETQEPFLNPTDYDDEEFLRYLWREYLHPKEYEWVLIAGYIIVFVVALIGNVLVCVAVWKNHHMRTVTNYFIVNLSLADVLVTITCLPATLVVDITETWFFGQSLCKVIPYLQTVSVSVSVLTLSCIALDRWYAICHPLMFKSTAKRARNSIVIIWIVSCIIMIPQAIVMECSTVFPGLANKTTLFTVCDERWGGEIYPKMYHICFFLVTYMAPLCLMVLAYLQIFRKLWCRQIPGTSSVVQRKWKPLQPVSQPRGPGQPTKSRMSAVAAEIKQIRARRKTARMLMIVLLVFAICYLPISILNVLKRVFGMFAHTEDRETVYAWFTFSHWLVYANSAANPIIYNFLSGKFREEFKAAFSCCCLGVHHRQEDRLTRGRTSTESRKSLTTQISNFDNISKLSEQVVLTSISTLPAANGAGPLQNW

Orexin receptor type 2 [10] = molecular target: T7, Orexin receptor type 2; assay: Counterscreen assay for antagonists of the orexin 1 receptor (OX1R; HCRTR1): Homogeneous Time Resolved Fluorescence (HTRF)-based cell-based dose response assay for antagonists of the orexin 2 receptor (OX2R; HCRTR2), run by assay provider.; assay type: functional
CHO-K1 = assay: as §2, with “Homogeneous time resolved fluorescence (HTRF)-based” for “Fluorescence-based”, “cell-based” for “cell-based high throughput”, “CHO-K1” for “CHO”; assay type: functional; details: Cricetulus griseus;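 note: potency for inhibition of ATP-stimulated IP1 production as antagonists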
[11] = Luminescence Cell-Based Dose Confirmation HTS to Identify Inhibitors of Platelet Dense Granule Release. [Related pubchem assays: 1663 (Primary HTS), 1678 (Summary of Project)]; assay type: functional
[12] = molecular target: Luciferin 4-monooxygenase (Photinus pyralis, UniProt P08659); assay: firefly luciferase enzyme inhibitors, dose response, biochemical, luminescence (AID 1891)
Luciferin 4-monooxygenase, sequence (P08659 whole entry): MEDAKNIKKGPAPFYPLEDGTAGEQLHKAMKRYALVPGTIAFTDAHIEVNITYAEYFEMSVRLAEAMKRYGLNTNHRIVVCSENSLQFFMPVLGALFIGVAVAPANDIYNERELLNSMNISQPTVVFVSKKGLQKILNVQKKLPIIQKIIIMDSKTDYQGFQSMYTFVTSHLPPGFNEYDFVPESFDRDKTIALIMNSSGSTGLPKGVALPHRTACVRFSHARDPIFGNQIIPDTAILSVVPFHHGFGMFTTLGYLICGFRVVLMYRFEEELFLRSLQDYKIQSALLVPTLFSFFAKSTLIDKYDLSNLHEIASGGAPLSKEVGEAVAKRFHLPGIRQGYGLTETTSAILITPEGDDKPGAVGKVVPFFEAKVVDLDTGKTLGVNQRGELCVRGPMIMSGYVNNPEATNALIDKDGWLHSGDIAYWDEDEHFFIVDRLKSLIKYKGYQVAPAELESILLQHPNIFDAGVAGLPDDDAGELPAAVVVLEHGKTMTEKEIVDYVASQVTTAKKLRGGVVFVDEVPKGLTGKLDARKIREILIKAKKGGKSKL

Cytochrome P450 2D6 = Cytochrome P450 2D6 (Homo sapiens, UniProt P10635);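 note: CYP2D6 member of a cytochrome P450 panel assay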
Cytochrome P450 2D6, sequence (P10635 whole entry): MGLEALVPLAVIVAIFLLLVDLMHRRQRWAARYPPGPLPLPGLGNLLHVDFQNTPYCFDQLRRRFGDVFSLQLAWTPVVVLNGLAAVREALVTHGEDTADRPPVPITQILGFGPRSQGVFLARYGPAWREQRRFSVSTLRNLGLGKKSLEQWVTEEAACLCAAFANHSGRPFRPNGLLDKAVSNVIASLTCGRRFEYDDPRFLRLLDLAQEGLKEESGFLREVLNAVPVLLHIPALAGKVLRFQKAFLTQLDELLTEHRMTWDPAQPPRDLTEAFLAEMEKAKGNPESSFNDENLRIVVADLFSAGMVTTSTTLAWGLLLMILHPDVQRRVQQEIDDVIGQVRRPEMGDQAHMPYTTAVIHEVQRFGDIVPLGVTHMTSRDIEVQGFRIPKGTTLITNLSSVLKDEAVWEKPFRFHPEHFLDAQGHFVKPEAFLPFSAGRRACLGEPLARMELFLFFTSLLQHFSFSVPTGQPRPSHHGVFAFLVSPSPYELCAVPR

Cytochrome P450 2C9 = Cytochrome P450 2C9 (Homo sapiens, UniProt P11712)
Cytochrome P450 2C9, sequence (P11712 whole entry): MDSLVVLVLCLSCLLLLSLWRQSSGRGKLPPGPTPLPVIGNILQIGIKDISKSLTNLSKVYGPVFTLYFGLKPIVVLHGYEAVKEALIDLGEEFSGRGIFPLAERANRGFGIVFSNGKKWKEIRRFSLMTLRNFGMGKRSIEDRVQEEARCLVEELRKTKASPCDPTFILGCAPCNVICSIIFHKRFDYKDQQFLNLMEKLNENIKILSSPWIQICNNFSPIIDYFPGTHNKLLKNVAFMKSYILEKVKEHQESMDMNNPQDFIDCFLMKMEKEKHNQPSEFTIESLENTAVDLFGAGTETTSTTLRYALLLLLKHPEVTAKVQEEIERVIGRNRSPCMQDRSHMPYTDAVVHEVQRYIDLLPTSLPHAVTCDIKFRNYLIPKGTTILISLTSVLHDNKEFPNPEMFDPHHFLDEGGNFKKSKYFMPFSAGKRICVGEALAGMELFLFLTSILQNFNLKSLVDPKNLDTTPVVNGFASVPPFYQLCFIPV

IC50 [1] | IC50 (Caspase-3) | IC50 (Protein skinhead-1) | IC50 [3] | Structure (SMILES) | IC50 [2] | CC50 [4] | IC50 [5] | IC50 [6] | IC50 [7] | IC50 [8] | IC50 (Orexin receptor type 2 [9]) | IC50 (Orexin receptor type 2 [10]) | IC50 (CHO-K1) | EC50 [11] | EC50 [12] | AC50 (Cytochrome P450 2D6) | AC50 (Cytochrome P450 2C9)
4.3 µM (active) | 6.4 µM (active) | > 100 µM (inactive) | 39 µM (active) | Fc1ccc(/C=C/c2nnc(-c3cccs3)o2)cc1 | 47 µM (active) |  |  |  |  |  |  |  |  |  |  |  | 
 |  |  |  | Cc1cnc(NC(=O)c2ccc(-c3nc4ccccc4s3)o2)s1 |  | 30.7 µM (active) | 1.97 µM (active) | > 49.8 µM (inactive) | 0.333 µM (active) | > 64 µM (inactive) | > 88.8 µM (inactive) | > 50 µM (inactive) | 62 µM (inactive) |  |  |  | 
 |  |  |  | COc1ccc(NC(=O)C(=O)Nc2cccc3cccnc23)cc1OC |  |  | 1.34 µM (active) | > 49.8 µM (inactive) | 0.475 µM (active) |  | > 88.8 µM (inactive) | > 50 µM (inactive) | > 66.2 µM (inactive) |  |  |  | 
> 99 µM (inactive) | > 99 µM (inactive) |  | > 99 µM (inactive) | C/C(=C\c1ccccc1)c1nc(-c2cccc(C(F)(F)F)c2)no1 | > 99 µM (inactive) |  |  |  |  |  |  |  |  |  |  |  | 
 |  |  |  | COc1ccc(/C=N/Nc2snc(SC)c2C#N)cc1OC |  |  | 4.85 µM (active) | > 49.8 µM (inactive) | 1.93 µM (active) |  | > 88.8 µM (inactive) | > 50 µM (inactive) | > 66.2 µM (inactive) | > 112 µM (not active) | 46.8 µM (active) | 0.282 µM (inconclusive) | 12.6 µM (inconclusive)
